One test deals with human GYS2 (Homo sapiens (Human), UniProt P54840). Briefly: GYS2 coupled enzyme assay (PK/LDH). To be noted: recombinant hGYS2/GN1 protein; geometric mean of at least 2 assay runs. It is filed as biochemical. From the text:
(§1) The GYS2 coupled enzyme assay is a kinetic biochemical assay that indirectly quantifies the rate of glycogen synthesis by coupling the conversion of GYS2 substrate UDP-glucose into UDP with downstream enzymatic reactions. UDP is released from UDP-glucose as glucose monomers are linked into the growing glycogen strand by GYS2. The coupled assay then proceeds with pyruvate kinase utilizing UDP and phospho (enol) pyruvate (PEP) to form pyruvate. Lactate dehydrogenase then converts pyruvate and NADH into lactate and NAD+. Oxidation of NADH to NAD+ can be measured continuously with a plate reader by quantifying the decrease in NADH absorbance at 340 nm over time.
Compounds that inhibit the hGYS2 enzyme and, subsequently, the downstream conversion of NADH to NAD+, were tested using assay ready plates (black, clear bottom 384 well plates) in a final DMSO reaction volume of 2.5% DMSO. The Assay Buffer contained 50 mM Tris pH 7.5, 2 mM MgCl2, and 100 mM KCl. Fresh stocks of BSA at a final concentration of 0.02% and TCEP 1 mM were added before splitting buffer into hGYS2 buffer and substrate buffer. To the hGYS2 buffer, rabbit liver glycogen was added at a final concentration of 0.2% glycogen. Glucose-6-Phosphate was added at 2 mM, recombinant hGYS2/GN1 protein was added at 200 nM to the substrate buffer, phosphoenolpyruvate (PEP) was added at 2 mM, UDP-Glucose was added at 2 mM, NADH was added at 0.6 mM, and Pyruvate Kinase/Lactate Dehydrogenase was added at 20 units/mL. The reaction was initiated by mixing hGYS2 buffer and substrate buffer at a 1:1 ratio. Both buffers were plated using a liquid dispensing device with hGYS2 buffer plated first followed by the substrate buffer. Plates were spun briefly to eliminate air bubbles and are immediately read in continuous mode at an absorbance of 340 nm, for 10 time points in one-minute increments, for a total of 10 minutes. The slope from these 10 time points was normalized to the positive and negative control wells.
(§2) Unless otherwise specified, IC50 values are reported as the geometric mean of at least 2 assay runs on separate days. […] Unless otherwise specified, IC50 values are reported as the geometric mean of at least two assay runs on separate days. Each run represents the average of a technical replicate, where each compound was assayed twice in the same plate.

Another test deals with human GYS1 (Homo sapiens (Human), UniProt P13807). Briefly: GYS1 coupled enzyme assay (PK/LDH). Format: biochemical. To be noted: recombinant hGYS1/GN1 protein; geometric mean of at least 2 assay runs.
Sequence of human GYS1 (P13807 whole entry): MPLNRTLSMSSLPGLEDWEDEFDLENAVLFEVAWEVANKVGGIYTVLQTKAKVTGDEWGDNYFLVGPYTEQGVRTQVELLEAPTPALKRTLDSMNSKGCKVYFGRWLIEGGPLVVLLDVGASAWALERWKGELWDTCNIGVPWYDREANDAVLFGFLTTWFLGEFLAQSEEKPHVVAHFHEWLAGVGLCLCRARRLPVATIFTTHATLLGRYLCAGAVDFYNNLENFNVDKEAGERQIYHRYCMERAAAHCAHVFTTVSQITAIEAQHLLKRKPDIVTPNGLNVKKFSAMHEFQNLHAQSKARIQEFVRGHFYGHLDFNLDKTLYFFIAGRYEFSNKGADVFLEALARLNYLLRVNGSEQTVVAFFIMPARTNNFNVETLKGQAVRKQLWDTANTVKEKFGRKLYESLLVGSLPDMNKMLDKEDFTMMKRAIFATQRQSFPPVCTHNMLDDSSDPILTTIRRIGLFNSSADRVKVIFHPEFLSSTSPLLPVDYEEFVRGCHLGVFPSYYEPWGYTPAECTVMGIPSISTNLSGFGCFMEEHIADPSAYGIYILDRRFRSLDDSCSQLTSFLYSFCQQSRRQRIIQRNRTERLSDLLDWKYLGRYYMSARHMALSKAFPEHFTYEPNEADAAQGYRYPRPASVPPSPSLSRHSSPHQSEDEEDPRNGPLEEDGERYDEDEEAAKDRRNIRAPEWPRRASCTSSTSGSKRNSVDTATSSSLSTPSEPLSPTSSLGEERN
Sequence of human GYS1 (P46976 whole entry partner): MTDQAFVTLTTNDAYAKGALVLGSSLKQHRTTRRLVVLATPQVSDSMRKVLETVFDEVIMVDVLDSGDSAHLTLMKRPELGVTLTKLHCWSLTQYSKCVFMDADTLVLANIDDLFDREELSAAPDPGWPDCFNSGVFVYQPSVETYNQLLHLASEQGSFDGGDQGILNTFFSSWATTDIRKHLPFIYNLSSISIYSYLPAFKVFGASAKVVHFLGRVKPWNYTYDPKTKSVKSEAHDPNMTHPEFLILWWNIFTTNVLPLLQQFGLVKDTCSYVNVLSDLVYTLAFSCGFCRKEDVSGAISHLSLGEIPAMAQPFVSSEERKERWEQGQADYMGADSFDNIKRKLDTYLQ
Text: as §1, with “GYS1” for “GYS2”, “GYS1.” for “GYS2.”
Compounds that inhibit the hGYS1 enzyme and, subsequently, the downstream conversion of NADH to NAD+, were tested using assay ready plates (black, clear bottom 384 well plates) in a final DMSO reaction volume of 2.5% DMSO. The Assay Buffer contained 50 mM Tris pH 7.5, 2 mM MgCl2, and 100 mM KCl. Fresh stocks of BSA at a final concentration of 0.02% and TCEP at 1 mM were added before splitting buffer into hGYS1 buffer and substrate buffer. To the hGYS1 buffer, rabbit liver glycogen was added at a final concentration of 0.2% glycogen. Glucose-6-Phosphate was added at 1 mM, recombinant hGYS1/GN1 protein was added at 50 nM to the substrate buffer, phosphoenolpyruvate (PEP) was added at 2 mM, UDP-Glucose was added at 0.8 mM, NADH) was added at 0.6 mM, and Pyruvate Kinase/Lactate Dehydrogenase was added at 20 units/mL. The reaction was initiated by mixing hGYS1 buffer and substrate buffer at a 1:1 ratio. Both buffers were plated using a liquid dispensing device with hGYS1 buffer plated first followed by the substrate buffer. Plates were spun briefly to eliminate air bubbles and are immediately read in continuous mode at an absorbance of 340 nm, for 10 time points in one-minute increments, for a total of 10 minutes. The slope from these 10 time points was normalized to the positive and negative control wells.
Unless otherwise specified, IC50 values are reported as the geometric mean of at least 2 assay runs on separate days. Each run represents the average of a technical replicate, where each compound was assayed twice in the same plate.

Test [1] addresses hGYS1 enzyme, glycogen synthesis in HeLa cells (Homo sapiens (Human), UniProt P13807). Briefly: GYS1 cell based assay (glycogen synthesis in HeLa cells, Glucose-glo). To be noted: starved HeLa cells, 24 h incubation; geometric mean of at least 2 assay runs; read-out: Cellular IC50.
Text: The GYS1 cell based assay is a bioluminescent assay that quantifies the glucose resulting from glycogen digestion; the quantified glucose is an indirect measure of GYS1 glycogen synthesis. Newly synthesized glycogen is digested using Glucoamylase; the resulting glucose is quantified by using the Glucose-glo assay kit from Promega. Glucose-glo works by coupling glucose oxidation and NADH production with a bioluminescent system that is activated with NADH. Glucose is oxidized by Glucose dehydrogenase and the reaction reduces NAD+ to NADH; NADH activates Reductase which reduces a pro-luciferin Reductase Substrate to luciferin. Luciferin is detected in a luciferase reaction using Ultra-Glo rLuciferase and ATP, and the luminesce produced is proportional to the glucose in the sample. The luminescence is measured as a single point read in a plate reader.
Compounds that inhibit the hGYS1 enzyme and, subsequently, the glycogen synthesis in cells, were tested using assay ready plates (white, clear bottom 384 well plates) in a final DMSO reaction volume of 1% DMSO. Compounds in the assay ready plates were mixed with media with no additives, except for 20 mM glucose prior to cell addition. HeLa cells were starved in media with no additives, except for 1× Glutamax for 24 h. Starved HeLa cells were plated, in a 1:1 ratio to the media in the assay ready plate and incubated for 24 h at 37° C. and 5% CO2. Cells were washed in 1×PBS buffer and lysed in lysis buffer containing 50% 1×PBS and 25% 0.3 N HCl of the final volume in the well or reaction volume; cells were incubated with lysis buffer for 10 minutes and quenched with the remaining 25% of the reaction volume that consisted of 450 mM Tris pH 8.0. Lysates were mixed in a 1:1 ratio with Glucoamylase in 100 mM Sodium Acetate buffer, pH 5.3; the mixture was incubated for 1 h at 37° C. The digested lysate was mixed in a 1:1 ratio with Glucose-glo detection mixture as per vendor recommendations (Luciferase detection buffer, Reductase, Reductase substrate, Glucose dehydrogenase, and NAD) in read-out plates (solid white 384-well plates) and incubated for 1 h at RT. The plates were read using a plate reader with luminescence capabilities. Each compound concentration Relative Luminescence Unit (RLU) was averaged and normalized to the average RLU of the positive and negative controls to obtain a percentage inhibition. The normalized data vs. concentration was plotted; to determine the half-maximal concentration (IC50), the Levenberg-Marquardt algorithm was used to fit a Hill equation to the dose response data.
as §2

The structures appear in SMILES notation. Some results are limits rather than exact numbers.

The term IC50 denotes the point on the concentration scale where inhibition reaches its midpoint.

Sequence of human GYS2 (P54840 whole entry): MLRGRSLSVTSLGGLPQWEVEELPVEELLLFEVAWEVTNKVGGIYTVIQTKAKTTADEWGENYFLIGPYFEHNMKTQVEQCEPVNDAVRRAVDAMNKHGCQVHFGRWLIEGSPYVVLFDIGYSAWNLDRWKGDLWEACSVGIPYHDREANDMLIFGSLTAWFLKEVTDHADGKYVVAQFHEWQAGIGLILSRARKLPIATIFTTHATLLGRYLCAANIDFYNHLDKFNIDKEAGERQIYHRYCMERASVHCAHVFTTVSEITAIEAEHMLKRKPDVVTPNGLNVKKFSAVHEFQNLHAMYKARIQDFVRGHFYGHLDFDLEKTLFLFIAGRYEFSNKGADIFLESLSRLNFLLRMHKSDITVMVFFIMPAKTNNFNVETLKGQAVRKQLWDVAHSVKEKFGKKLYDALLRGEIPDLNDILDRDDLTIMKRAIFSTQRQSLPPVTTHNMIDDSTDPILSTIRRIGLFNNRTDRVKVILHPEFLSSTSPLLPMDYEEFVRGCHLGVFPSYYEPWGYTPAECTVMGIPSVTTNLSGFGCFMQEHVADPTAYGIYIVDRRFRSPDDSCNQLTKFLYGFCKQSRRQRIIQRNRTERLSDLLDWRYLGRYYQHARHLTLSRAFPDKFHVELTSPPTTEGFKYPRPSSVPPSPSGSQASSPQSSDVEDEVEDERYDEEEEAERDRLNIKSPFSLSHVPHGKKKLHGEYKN
Sequence of human GYS2 (P46976 whole entry partner): as the sequence (P46976 whole entry partner) above
Sequence of hGYS1 enzyme, glycogen synthesis in HeLa cells (P13807 whole entry): as the sequence (P13807 whole entry) above

Consider `O=C(O)[C@H]1CCC[C@H]1C(=O)N[C@@H](c1ccccc1)c1ccc(C2CCC2)cn1` [Compound 15, (1S,2R)-2-(((S)-(5-cyclobutylpyridin-2-yl)(phenyl)methyl)carbamoyl)cyclopentane-1-carboxylic acid], for which the half-inhibitory concentration (IC50) on human GYS2 is more than 100 µM; on human GYS1 it was 0.497 µM; in test [1] it was 8.49 µM.

As for `CC(C)c1ccc([C@@H](NC(=O)[C@@H]2CCC[C@@H]2C(=O)O)c2ccn[nH]2)cc1F` [Compound 27, (1S,2R)-2-(((R)-(3-fluoro-4-isopropylphenyl)(1H-pyrazol-5-yl)methyl)carbamoyl)cyclopentane-1-carboxylic acid], the IC50 at human GYS2 was more than 100 µM; on human GYS1 it was 1.48 µM; in test [1], 46.3 µM.

Regarding `CC(C)c1ccc([C@@H](NC(=O)[C@@H]2CCC[C@@H]2C(=O)O)c2ccccc2)cc1` [Compound 41, (1S,2R)-2-(((S)-(4-isopropylphenyl)(phenyl)methyl)carbamoyl)cyclopentane-1-carboxylic acid], the figures for the IC50 on human GYS2 and at human GYS1 were more than 87.1 µM and 0.637 µM, respectively.

`O=C(O)[C@H]1CCC[C@H]1C(=O)N[C@@H](c1ccccc1)c1ccc(C2CCC2)cc1` [Compound 34, (1S,2R)-2-(((S)-(4-cyclobutylphenyl)(phenyl)methyl)carbamoyl)cyclopentane-1-carboxylic acid]: the concentration for half-maximal inhibition (IC50) amounted to 67.1 µM on human GYS2 and 0.426 µM on human GYS1.

Regarding `CC(C)c1ccc(C(NC(=O)C2CCCC2C(=O)O)c2cccs2)cc1` (single isomer, unassigned) [Compound 46, (1S or 1R,2R or 2S)-2-(((S or R)-(4-isopropylphenyl)(thiophen-2-yl)methyl)carbamoyl)cyclopentane-1-carboxylic acid], the values for the IC50 on human GYS2 and at human GYS1 were more than 250 µM and more than 99.9 µM, respectively.

As for `CC(C)c1ccc([C@@H](NC(=O)[C@@H]2CCC[C@@H]2C(=O)O)c2cccc3[nH]c(=O)oc23)cc1` [Compound 9, (1S,2R)-2-(((R)-(4-isopropylphenyl)(2-oxo-2,3-dihydrobenzo[d]oxazol-7-yl)methyl)carbamoyl)cyclopentane-1-carboxylic acid], the figures for the IC50 (on human GYS1; in test [1]) were 0.879 µM and more than 100 µM, respectively.

With `CC(C)c1ccc([C@@H](NC(=O)[C@@H]2CCC[C@@H]2C(=O)O)c2ccccc2)nc1` [Compound 36, (1S,2R)-2-(((S)-(5-isopropylpyridin-2-yl)(phenyl)methyl)carbamoyl)cyclopentane-1-carboxylic acid], the results for the 50% inhibitory concentration (IC50) on human GYS2 and at human GYS1 were more than 100 µM and 0.837 µM, respectively.

Turning to `CC(C)c1ccc([C@@H](NC(=O)[C@@H]2CCC[C@@H]2C(=O)O)c2cccc3c2NC(=O)C3)cc1` [Compound 30, (1S,2R)-2-(((R)-(4-isopropylphenyl)(2-oxoindolin-7-yl)methyl)carbamoyl)cyclopentane-1-carboxylic acid], the figures for the IC50 (at human GYS1; in test [1]) were 1.61 µM and 31.3 µM, respectively.

Regarding `CC(C)c1ccc([C@@H](NC(=O)[C@@H]2CCC[C@@H]2C(=O)O)c2ccn[nH]2)cc1` [Compound 32, (1S,2R)-2-(((R)-(4-isopropylphenyl)(1H-pyrazol-5-yl)methyl)carbamoyl)cyclopentane-1-carboxylic acid], the IC50 is 2.39 µM at human GYS1 and more than 100 µM in test [1].

For the molecule `Cc1ccccc1[C@H](NC(=O)[C@@H]1CCC[C@@H]1C(=O)O)c1ccc(C(C)C)cc1` [Compound 40, (1S,2R)-2-(((R)-(4-isopropylphenyl)(o-tolyl)methyl)carbamoyl)cyclopentane-1-carboxylic acid], the IC50 at human GYS2 turned out to be 10.8 µM; on human GYS1, 0.39 µM.

On to `CC(C)c1ccc([C@@H](NC(=O)[C@@H]2CCC[C@@H]2C(=O)O)c2ccccc2NC(N)=O)cc1F` [Compound 24, (1S,2R)-2-(((R)-(3-fluoro-4-isopropylphenyl)(2-ureidophenyl)methyl)carbamoyl)cyclopentane-1-carboxylic acid], for which the values for the IC50 (on human GYS1; in test [1]) were 2.82 µM and 92 µM, respectively.

For the molecule `CC(C)c1ccc([C@@H](NC(=O)[C@@H]2CCCC[C@@H]2C(=O)O)c2cccs2)cc1` [Compound 42, (1S,2R)-2-(((R)-(4-isopropylphenyl)(thiophen-2-yl)methyl)carbamoyl)cyclohexane-1-carboxylic acid], the IC50 is more than 77.6 µM on human GYS2 and 0.961 µM on human GYS1.

With `CC(C)c1ccc(C(NC(=O)C2CCCC2C(=O)O)c2cccs2)cc1` (single isomer, unassigned) [Compound 44, (1R or 1S,2S or 2R)-2-(((R or S)-(4-isopropylphenyl)(thiophen-2-yl)methyl)carbamoyl)cyclopentane-1-carboxylic acid], the IC50 on human GYS2 amounted to 11.7 µM; at human GYS1, 12.9 µM.

In the case of `CC(C)c1ccc(C(NC(=O)C2CCCC2C(=O)O)c2cccs2)cc1` (single isomer, unassigned) [Compound 43, (1R or 1S,2S or 2R)-2-(((S or R)-(4-isopropylphenyl)(thiophen-2-yl)methyl)carbamoyl)cyclopentane-1-carboxylic acid], the figures for the IC50 at human GYS2 and on human GYS1 were more than 250 µM and 19.8 µM, respectively.

As to `CC(C)c1ccc([C@@H](NC(=O)[C@@H]2CCC[C@@H]2C(=O)O)c2ccccc2NC(=O)C2CNC2)cc1` [Compound 13, (1S,2R)-2-(((R)-(2-(azetidine-3-carboxamido)phenyl)(4-isopropylphenyl)methyl)carbamoyl)cyclopentane-1-carboxylic acid], the 50% inhibitory concentration (IC50) on human GYS1 was 2.36 µM; in test [1] it was more than 68.6 µM.
